# Reference: patent US20040228866A1, “Suppressor genes” (Ludwig Institute for Cancer Research, priority 2000, published 2004)
# Test system: Saos-2 cells
# Assay: Apoptosis by flow cytometry (CD20-gated, sub-G1 DNA content) in transfected Saos-2 cells
# Assay type: cell-based
# Protocol: Apoptosis was identified by the expression of the co-transfected cell surface marker CD20, as described in Samuels-Lev et al. (Mol. Cell 8:781-94, 2001, herein incorporated by reference).
# The number of apoptotic cells was determined using the methods described in Example 6.
# Cells (10^6) were plated 24-48 hours prior to transfection in 10 cm plates. Cells were grown in DMEM supplemented with 10% FCS and transfected with 2 μg of a plasmid expressing CD20 as a transfection marker. Increasing amounts of ASPP1 and ASPP2 were transfected (7.5 μg, 15 μg and 25 μg). 36 hours after the transfection, both attached and floating cells were harvested and analysed using flow cytometry as follows. The transfected cells were gated based on the expression of CD20. The percentage of apoptotic cells was measured by the accumulation of cells with a sub-G1 DNA content derived from at least three individual experiments.
# The transfected cells were analyzed by flow cytometry as described in Example 6.
substance,measurement,setting,value
Bcl-2: anti-apoptotic Bcl-2 oncoprotein,effect on the apoptotic function of wild type p53,co-expressed with p53,decreased
same,effect on the enhancement of p53 apoptotic function by ASPP1 and ASPP2,co-expressed with p53 and ASPP1 or ASPP2,effectively prevented ASPP1 and ASPP2 from enhancing the apoptotic function of p53
same,effect on apoptosis induced by p53H175-L,"transcriptionally inactive, mitochondria-targeted mutant p53, FIG. 9A",failed to decrease or inhibit apoptosis induced by p53H175-L
